Experimental data from patent US4868171A, “Antibiotic A 40926 N-acylaminoglucuronyl aglycons and antiobiotic A 40926 aglycon” (Gruppo Lepetit S.p.A., priority 1986, dated 1989).
Converted amounts (≈) assume the structure as drawn.

Legend:
[1] = system: Strep. pneumoniae L44 UC41; assay: MIC determination, standard dilution test (Todd-Hewitt broth); assay type: cell-based; details: Streptococcus pneumoniae, 24 h
[2] = system: Clostridium difficile L1363 ATCC 9689; assay: MIC determination, agar dilution (Wilkins-Chalgren agar, anaerobic); assay type: cell-based; details: Clostridioides difficile, ATCC9689, 48 h
S. pyogenes C 203 (L 49) = assay: Experimental septicemia in the mouse; assay type: in vivo, CD-1 mice infected with S. pyogenes; details: Streptococcus pyogenes, sc, 168 h, subcutaneous immediately after infection, survival on 7th day
Description: The antimicrobial activity of the compounds of the invention is confirmed also in experimental septicemia in the mouse. Control and treatment groups contained ten CD-1 mice (Charles River) weighing 18-22 g. They were infected intraperitoneally with 0.5 ml of bacterial suspension prepared by diluting an overnight culture of S. pyogenes C 203 (L 49) with sterile peptonized saline. Inocula were adjusted so that untreated animals died of septicemia within 48 h. The compounds to be tested were administered subcutaneously immediately after infection. On the 7th day, the ED50 in mg/kg was calculated by the method of Spearman and Karber (D. J. Finney "Statistical Methods in Biological Assay", Griffin, page 524, 1952) from the percentage of surviving animals at each dose.

[3] = system: Neisseria gonorrhoeae L997 ISM68/126; assay: MIC determination, standard dilution test (GC base broth + 1% Isovitalex); assay type: cell-based; details: L997ISM68/126, 48 h, CO2-enriched
[4] = system: Strep. mitis L796 (clinical isolate); assay: MIC determination, standard dilution test (Todd-Hewitt broth); assay type: cell-based; details: Streptococcus mitis, 24 h
[5] = system: Propionibacterium acnes L1014 ATCC 6919; assay: MIC determination, agar dilution (Wilkins-Chalgren agar, anaerobic); assay type: cell-based; details: Cutibacterium acnes, ATCC6919, 48 h
[6] = system: Bacteroides fragilis L1010 ATCC 23745; assay: as above; assay type: cell-based; details: ATCC23745, 48 h
[7] = system: Mycoplasma gallisepticum L431 S6 Weybridge; assay: MIC determination, standard dilution test (PPLO broth); assay type: cell-based; details: Mycoplasmoides gallisepticum; PPLO broth + 10% horse serum + 1% glucose, 48 h
[8] = system: Strep. faecalis L149 ATCC 7080; assay: MIC determination, standard dilution test (Isosensitest broth); assay type: cell-based; details: Enterococcus faecalis, ATCC7080, 24 h
[9] = system: Haemophilus influenzae L 970 type b ATCC 19418; assay: MIC determination, standard dilution test (Brain Heart broth + 1% Supplement C); assay type: cell-based; details: ATCC19418, 48 h
Strep. pyogenes L49 C203 = assay: MIC determination, standard dilution test (Todd-Hewitt broth); assay type: cell-based; details: Streptococcus pyogenes, L49C203, 24 h
[10] = system: Staph. epidermidis L147 ATCC 12228 (coagulase negative); assay: MIC determination, standard dilution test (Isosensitest broth); assay type: cell-based; details: Staphylococcus epidermidis, ATCC12228, 24 h
[11] = system: Escherichia coli L47 SKF 12140; assay: as above; assay type: cell-based; details: L47SKF12140, 24 h
[12] = system: Clostridium perfringens L290 ISS 30543; assay: microbe, parasite or virus in culture; assay type: cell-based; details: L290ISS30543, 24 h
Staph. aureus L165 = assay: MIC determination, standard dilution test (Isosensitest broth); assay type: cell-based; details: Staphylococcus aureus

CNC1C(=O)NC2Cc3ccc(cc3)Oc3cc4cc(c3O)Oc3ccc(cc3Cl)C(O)C3NC(=O)C(NC(=O)C4NC(=O)C(NC2=O)c2cc(cc(O)c2Cl)Oc2cc1ccc2O)c1ccc(O)c(c1)-c1c(O)cc(O)cc1C(C(=O)O)NC3=O (stereo not shown) [Antibiotic A 40926 aglycon]
MIC [1]: 1 µg/mL (≈ 0.824 µM)
MIC [2]: 1 µg/mL (≈ 0.824 µM)
ED50 (S. pyogenes C 203 (L 49)): 6.2 mg/kg
MIC [3]: 16 µg/mL
MIC [4]: 0.5 µg/mL (≈ 0.412 µM)
MIC [5]: 1 µg/mL (≈ 0.824 µM)
MIC [6]: 32 µg/mL (≈ 26.4 µM)
MIC [7]: > 128 µg/mL
MIC [8]: 0.5 µg/mL (≈ 0.412 µM)
MIC [9]: 32 µg/mL
MIC (Strep. pyogenes L49 C203): 0.5 µg/mL (≈ 0.412 µM)
MIC [10]: 0.13 µg/mL (≈ 0.107 µM)
MIC [11]: 128 µg/mL (≈ 106 µM)
MIC [12]: 0.25 µg/mL (≈ 0.206 µM)
MIC (Staph. aureus L165; L165, 24 h, Staph. aureus L165 (10^6 cfu/ml)): 0.25 µg/mL (≈ 0.206 µM)
MIC (Staph. aureus L165; Staph. aureus L165, 24 h, about 10^4-10^5 cfu/ml): 0.13 µg/mL (≈ 0.107 µM)
